# Data taken from article PMC11864979, “First-in-class ultralong-target-residence-time p38α inhibitors as a mitosis-targeted therapy for colorectal cancer” (Nature Cancer, 2025).
# Read-outs that look alike come from different tables or passages of the source.
# Assays:
# Test in all cases: selectivity profiling in a panel of 340 wild-type kinases (Reaction Biology Europe)
# Type in all cases: binding
# 340 wild-type kinases [1] = target: T1, 340 wild-type kinases (Homo sapiens, UniProt O60285)
# T1 construct: purchased Reaction Biology Europe
# T1 sequence (O60285 1-661): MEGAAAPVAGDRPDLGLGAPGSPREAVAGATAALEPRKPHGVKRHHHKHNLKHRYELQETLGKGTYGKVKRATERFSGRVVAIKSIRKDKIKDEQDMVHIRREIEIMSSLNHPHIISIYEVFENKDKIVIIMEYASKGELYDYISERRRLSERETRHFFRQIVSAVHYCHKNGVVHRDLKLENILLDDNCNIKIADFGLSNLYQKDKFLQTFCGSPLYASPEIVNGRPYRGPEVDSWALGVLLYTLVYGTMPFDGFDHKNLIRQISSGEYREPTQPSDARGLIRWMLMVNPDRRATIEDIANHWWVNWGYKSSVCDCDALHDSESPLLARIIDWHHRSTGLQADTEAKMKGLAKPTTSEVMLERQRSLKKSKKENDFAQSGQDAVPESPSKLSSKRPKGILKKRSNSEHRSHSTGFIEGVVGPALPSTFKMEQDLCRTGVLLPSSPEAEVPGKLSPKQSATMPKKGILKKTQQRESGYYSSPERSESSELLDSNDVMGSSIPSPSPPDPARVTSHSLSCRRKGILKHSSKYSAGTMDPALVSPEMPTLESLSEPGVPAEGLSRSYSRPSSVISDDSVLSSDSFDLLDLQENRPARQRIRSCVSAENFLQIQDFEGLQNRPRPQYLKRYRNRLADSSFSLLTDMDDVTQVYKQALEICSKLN
# 340 wild-type kinases [2] = target: T2, 340 wild-type kinases (Homo sapiens, UniProt Q12866)
# T2 construct: purchased Reaction Biology Europe
# T2 sequence (Q12866 21-999): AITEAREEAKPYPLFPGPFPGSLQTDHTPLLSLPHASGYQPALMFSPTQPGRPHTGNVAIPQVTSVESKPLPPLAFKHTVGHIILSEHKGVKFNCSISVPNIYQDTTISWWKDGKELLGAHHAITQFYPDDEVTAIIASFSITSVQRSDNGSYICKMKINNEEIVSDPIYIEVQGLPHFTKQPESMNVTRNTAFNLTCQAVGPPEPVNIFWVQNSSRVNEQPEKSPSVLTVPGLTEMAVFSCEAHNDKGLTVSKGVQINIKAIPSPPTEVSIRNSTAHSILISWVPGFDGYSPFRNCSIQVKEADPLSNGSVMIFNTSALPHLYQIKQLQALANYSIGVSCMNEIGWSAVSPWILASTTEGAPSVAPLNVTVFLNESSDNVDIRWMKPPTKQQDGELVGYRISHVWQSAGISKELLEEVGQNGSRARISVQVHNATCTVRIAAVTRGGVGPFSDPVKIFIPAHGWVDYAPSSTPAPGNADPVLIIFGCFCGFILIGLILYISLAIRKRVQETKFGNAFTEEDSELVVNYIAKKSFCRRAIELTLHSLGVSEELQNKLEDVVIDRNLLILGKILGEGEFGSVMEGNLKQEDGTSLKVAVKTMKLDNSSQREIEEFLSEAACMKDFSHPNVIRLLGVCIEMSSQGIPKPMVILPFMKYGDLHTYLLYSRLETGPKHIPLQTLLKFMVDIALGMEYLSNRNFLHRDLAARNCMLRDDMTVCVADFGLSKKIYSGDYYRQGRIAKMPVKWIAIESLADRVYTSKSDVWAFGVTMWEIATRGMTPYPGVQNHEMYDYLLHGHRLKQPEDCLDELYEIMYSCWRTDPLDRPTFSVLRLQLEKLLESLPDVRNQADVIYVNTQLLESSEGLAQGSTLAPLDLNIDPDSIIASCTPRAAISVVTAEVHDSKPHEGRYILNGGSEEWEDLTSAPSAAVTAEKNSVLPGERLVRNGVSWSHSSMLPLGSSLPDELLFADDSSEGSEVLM
# 340 wild-type kinases [3] = target: T3, 340 wild-type kinases (Homo sapiens, UniProt P11802)
# T3 construct: purchased Reaction Biology Europe
# T3 sequence (P11802 whole entry): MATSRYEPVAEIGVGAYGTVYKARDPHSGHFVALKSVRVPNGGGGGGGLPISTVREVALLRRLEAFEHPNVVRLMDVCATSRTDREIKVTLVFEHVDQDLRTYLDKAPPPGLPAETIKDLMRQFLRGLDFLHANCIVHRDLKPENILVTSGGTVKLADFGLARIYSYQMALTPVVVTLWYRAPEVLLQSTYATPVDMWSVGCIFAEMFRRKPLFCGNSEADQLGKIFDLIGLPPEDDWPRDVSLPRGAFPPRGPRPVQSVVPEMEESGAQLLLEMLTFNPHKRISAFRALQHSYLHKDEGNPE
# 340 wild-type kinases [4] = conditions: for residual activity: RAF1 YDYD
# 340 wild-type kinases [5] = target: T4, 340 wild-type kinases (Homo sapiens, UniProt Q9BYT3)
# T4 construct: purchased Reaction Biology Europe
# T4 sequence (Q9BYT3 whole entry): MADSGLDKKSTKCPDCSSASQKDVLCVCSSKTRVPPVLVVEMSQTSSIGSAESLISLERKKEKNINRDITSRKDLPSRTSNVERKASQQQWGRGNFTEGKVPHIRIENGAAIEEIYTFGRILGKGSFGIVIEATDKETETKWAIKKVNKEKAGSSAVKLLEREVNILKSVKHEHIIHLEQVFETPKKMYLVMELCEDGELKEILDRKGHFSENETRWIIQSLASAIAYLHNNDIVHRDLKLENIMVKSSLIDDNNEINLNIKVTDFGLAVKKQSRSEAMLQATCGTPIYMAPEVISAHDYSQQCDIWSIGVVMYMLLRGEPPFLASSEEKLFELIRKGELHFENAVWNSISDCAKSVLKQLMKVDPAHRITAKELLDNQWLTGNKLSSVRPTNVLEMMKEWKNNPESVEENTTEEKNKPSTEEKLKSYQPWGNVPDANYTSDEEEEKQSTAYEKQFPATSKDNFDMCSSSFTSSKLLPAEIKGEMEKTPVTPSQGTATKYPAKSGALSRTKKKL
smiles,measurement,setting,value
CNC(=O)c1ccc2c(c1)C(=O)c1ccc(Nc3ccc(F)c(NC(=O)C4CC4)c3)cc1CC2 [Compound 2015],remaining activity at 0.2 µM,"340 wild-type kinases [1]; 0.2 µM 2015, read-out: ARK5 residual activity",96.7%
same,remaining activity at 1 µM,"340 wild-type kinases [1]; 1 µM 2015, read-out: ARK5 residual activity",98.5%
same,remaining activity at 0.2 µM,"340 wild-type kinases [1]; ARK5, 0.2 µM, read-out: residual activity",96.7%
same,remaining activity at 1 µM,"340 wild-type kinases [1]; ARK5, 1 µM, read-out: residual activity",98.5%
same,remaining activity at 0.2 µM,"340 wild-type kinases [2]; 0.2 µM 2015, read-out: MERTK residual activity",88.3%
same,remaining activity at 1 µM,"340 wild-type kinases [2]; 1 µM 2015, read-out: MERTK residual activity",97%
same,remaining activity at 0.2 µM,"340 wild-type kinases [2]; MERTK, 0.2 µM, read-out: residual activity",88.3%
same,remaining activity at 1 µM,"340 wild-type kinases [2]; MERTK, 1 µM, read-out: residual activity",97%
same,remaining activity at 0.2 µM,"340 wild-type kinases [3]; 0.2 µM 2015, read-out: CDK4/CycD1 residual activity",117%
same,remaining activity at 0.2 µM,"340 wild-type kinases [3]; 0.2 µM 2015, read-out: CDK4/CycD2 residual activity",109%
same,remaining activity at 0.2 µM,"340 wild-type kinases [3]; 0.2 µM 2015, read-out: CDK4/CycD3 residual activity",70.3%
same,remaining activity at 1 µM,"340 wild-type kinases [3]; 1 µM 2015, read-out: CDK4/CycD1 residual activity",98.4%
same,remaining activity at 1 µM,"340 wild-type kinases [3]; 1 µM 2015, read-out: CDK4/CycD2 residual activity",103%
same,remaining activity at 1 µM,"340 wild-type kinases [3]; 1 µM 2015, read-out: CDK4/CycD3 residual activity",81.7%
same,remaining activity at 0.2 µM,"340 wild-type kinases [3]; CDK4/CycD1, 0.2 µM, read-out: residual activity",117%
same,remaining activity at 0.2 µM,"340 wild-type kinases [3]; CDK4/CycD2, 0.2 µM, read-out: residual activity",109%
same,remaining activity at 1 µM,"340 wild-type kinases [3]; CDK4/CycD2, 1 µM, read-out: residual activity",103%
same,remaining activity at 0.2 µM,"340 wild-type kinases [3]; CDK4/CycD3, 0.2 µM, read-out: residual activity",70.3%
same,remaining activity at 1 µM,"340 wild-type kinases [3]; CDK4/CycD3, 1 µM, read-out: residual activity",81.7%
same,PKCbeta2 residual activity,340 wild-type kinases [4]; 0.2 µM 2015,102.668%
same,PKCbeta2 residual activity,340 wild-type kinases [4]; 1 µM 2015,108.52%
same,residual activity,340 wild-type kinases [4]; 0.2 µM,80.31%
same,residual activity,340 wild-type kinases [4]; 1 µM,88.78%
same,effect on p38α and p38β (in words),"340 wild-type kinases [4]; panel of 340 kinases, 1 µM and 0.2 µM",specifically inhibited
same,remaining activity at 0.2 µM,"340 wild-type kinases [5]; 0.2 µM 2015, read-out: STK33 residual activity",99.1%
same,remaining activity at 1 µM,"340 wild-type kinases [5]; 1 µM 2015, read-out: STK33 residual activity",96.3%
same,remaining activity at 0.2 µM,"340 wild-type kinases [5]; STK33, 0.2 µM, read-out: residual activity",99.1%
same,remaining activity at 1 µM,"340 wild-type kinases [5]; STK33, 1 µM, read-out: residual activity",96.3%
